“And” between values parts separate entries of the source, which are not always exact repeats. Equal entries are not always repeated. Inconclusive results and toxic doses are left out. Rule for the calls: active = survival T/C of 150% or more; inactive = T/C below 125% in these data.
System: P388 leukemia ip, CD2F1 mice, survival T/C
Experiment: NCI In Vivo Anticancer Drug Screen. Data for tumor model P388 Leukemia (intraperitoneal) in CD2F1 (CDF1) mice
Details: endpoint: median survival time, higher = longer survival
Outline: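 Mice carrying the transplanted tumor received test compound or vehicle. Survival was recorded in each group, and the value is the treated-group measurement divided by that of the vehicle-treated control group.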

[1] = dose: 50.0 mg/kg/injection, schedule: Q01DX009 (ip), vehicle: Klucel (hydroxypropylcellulose) (HPC)
[2] = dose: 100.0 mg/kg/injection, schedule: Q01DX009 (ip), vehicle: Klucel (hydroxypropylcellulose) (HPC)
[3] = dose: 100.0 mg/kg/injection, schedule: Q01DX009 (ip), vehicle: saline with Tween-80
[4] = dose: 200.0 mg/kg/injection, schedule: Q01DX009 (ip), vehicle: saline with Tween-80
[5] = dose: 50.0 mg/kg/injection, schedule: Q01DX009 (ip), vehicle: saline
[6] = dose: 100.0 mg/kg/injection, schedule: Q01DX009 (ip), vehicle: saline
[7] = dose: 200.0 mg/kg/injection, schedule: Q01DX009 (ip), vehicle: saline
[8] = dose: 60.0 mg/kg/injection, schedule: Q01DX005 (ip), vehicle: Klucel (hydroxypropylcellulose) (HPC)
[9] = dose: 120.0 mg/kg/injection, schedule: Q01DX005 (ip), vehicle: Klucel (hydroxypropylcellulose) (HPC)
[10] = dose: 240.0 mg/kg/injection, schedule: Q01DX005 (ip), vehicle: Klucel (hydroxypropylcellulose) (HPC)

Measured: T/C

O=C(O)c1cc(C(=O)O)c(C(=O)O)cc1C(=O)O
inactive: dose: 50.0 mg/kg/injection, schedule: Q01DX009 (ip), vehicle: water 96 % of control | dose: 100.0 mg/kg/injection, schedule: Q01DX009 (ip), vehicle: water 100 % of control | dose: 200.0 mg/kg/injection, schedule: Q01DX009 (ip), vehicle: water 99 % of control

O=C(O)CC(NC(=O)c1ccccc1)C(=O)O (stereo not given)
inactive: dose: 50.0 mg/kg/injection, schedule: Q01DX005 (ip), vehicle: saline with Tween-80 96 % of control | dose: 100.0 mg/kg/injection, schedule: Q01DX005 (ip), vehicle: saline with Tween-80 102 % of control | dose: 200.0 mg/kg/injection, schedule: Q01DX005 (ip), vehicle: saline with Tween-80 92 % of control

CC1C=CCC(C)(C#N)C1 (stereo not given)
inactive: [1] 103 % of control | [2] 100 % of control | dose: 200.0 mg/kg/injection, schedule: Q01DX009 (ip), vehicle: Klucel (hydroxypropylcellulose) (HPC) 108 % of control

O=C(CC(=NCCCN=C(CC(=O)c1ccccc1)c1ccccc1)c1ccccc1)c1ccccc1
inactive: dose: 50.0 mg/kg/injection, schedule: Q01DX009 (ip), vehicle: saline with Tween-80 96 % of control | [3] 100 % of control | [4] 100 % of control

CCn1c(=O)c2n[nH]nc2n(CCO)c1=O
inactive: [1] 97 % of control | [2] 100 % of control

COc1ccc2nc3cc(Cl)ccc3c(NCCCCCCCCNc3c4ccc(Cl)cc4nc4ccc(OC)cc34)c2c1
inactive: dose: 0.62 mg/kg/injection, schedule: Q01DX009 (ip), vehicle: other 101 % of control | dose: 1.25 mg/kg/injection, schedule: Q01DX009 (ip), vehicle: other 101 % of control | dose: 2.5 mg/kg/injection, schedule: Q01DX009 (ip), vehicle: other 104 % of control | dose: 5.0 mg/kg/injection, schedule: Q01DX009 (ip), vehicle: other 100 % of control | dose: 10.0 mg/kg/injection, schedule: Q01DX009 (ip), vehicle: other 97 % of control | dose: 20.0 mg/kg/injection, schedule: Q01DX009 (ip), vehicle: other 109 % of control

CN(C)c1cc2nc3ccccc3nc2cc1O
inactive: [5] 95 % of control | [6] 92 % of control | [7] 100 % of control

CC1(C)CC(O)CC2(C)OC(=O)C=C12 (stereo not given)
inactive: dose: 2.5 mg/kg/injection, schedule: Q01DX009 (ip), vehicle: DMSO 101 % of control | dose: 5.0 mg/kg/injection, schedule: Q01DX009 (ip), vehicle: DMSO 103 % of control | dose: 10.0 mg/kg/injection, schedule: Q01DX009 (ip), vehicle: DMSO 91 % of control

CCCn1c(=S)[nH]c2ccccc2c1=O
inactive: [3] 95 % of control | dose: 100.0 mg/kg/injection, schedule: Q04DX003 (ip), vehicle: saline with Tween-80 100 % of control | [4] 90 % of control | dose: 200.0 mg/kg/injection, schedule: Q04DX003 (ip), vehicle: saline with Tween-80 91 % of control | dose: 400.0 mg/kg/injection, schedule: Q01DX009 (ip), vehicle: saline with Tween-80 100 % of control | dose: 400.0 mg/kg/injection, schedule: Q04DX003 (ip), vehicle: saline with Tween-80 91 % of control

OCC(O)C(O)C(O)/C=N\O (stereo not given)
inactive: [5] 98 % of control | [6] 105 % of control | [7] 98 % of control

CCOC(=O)C1CN(C(=O)OCC)CCC1NC(C)=O (stereo not given)
inactive: [8] 102 % of control | [9] 96 % of control | [10] 98 % of control

COc1cc2c(cc1OC)C[N+]1(C)CCc3cc(OC)c(OC)cc3C1C2 (stereo not given)
inactive: dose: 10.0 mg/kg/injection, schedule: Q01DX009 (ip), vehicle: saline 111 % of control | dose: 20.0 mg/kg/injection, schedule: Q01DX009 (ip), vehicle: saline 111 % of control

COc1cc2c(cc1OC)C1C(=O)c3ccc4c(c3OC1CO2)CC(C(C)(O)CO)O4 (stereo not given)
inactive: dose: 10.0 mg/kg/injection, schedule: Q01DX005 (ip), vehicle: DMSO 108 % of control | dose: 20.0 mg/kg/injection, schedule: Q01DX005 (ip), vehicle: DMSO 107 % of control

COc1cc2c3c(c1)/C(=N\Nc1ccccc1)CCN3CCC2
inactive: dose: 3.12 mg/kg/injection, schedule: Q01DX009 (ip), vehicle: DMSO 99 % of control

CC1(C)COP(Oc2ccccc2)OC1
inactive: dose: 25.0 mg/kg/injection, schedule: Q01DX009 (ip), vehicle: saline + Tween-80 + alcohol 102 % of control | dose: 50.0 mg/kg/injection, schedule: Q01DX009 (ip), vehicle: saline + Tween-80 + alcohol 103 % of control | dose: 100.0 mg/kg/injection, schedule: Q01DX009 (ip), vehicle: saline + Tween-80 + alcohol 100 % of control | dose: 200.0 mg/kg/injection, schedule: Q01DX009 (ip), vehicle: saline + Tween-80 + alcohol 96 % of control

CCCCCCCCCCCCCCCC[N+](C)(C)CCSc1ccccc1
inactive: dose: 1.56 mg/kg/injection, schedule: Q01DX009 (ip), vehicle: distilled water + alcohol 107 % of control and 108 % of control and 111 % of control | dose: 3.12 mg/kg/injection, schedule: Q01DX009 (ip), vehicle: distilled water + alcohol 110 % of control (2×) and 122 % of control | dose: 12.5 mg/kg/injection, schedule: Q01DX009 (ip), vehicle: distilled water + alcohol 98 % of control

COc1ccc(C2C3=C(CC(C)(C)CC3=O)Oc3cc4c(cc32)OCO4)c(OC)c1 (stereo not given)
inactive: dose: 60.0 mg/kg/injection, schedule: Q01DX005 (ip), vehicle: saline with Tween-80 99 % of control | dose: 120.0 mg/kg/injection, schedule: Q01DX005 (ip), vehicle: saline with Tween-80 93 % of control | dose: 240.0 mg/kg/injection, schedule: Q01DX005 (ip), vehicle: saline with Tween-80 92 % of control

CCc1cccc(C2(C)C(=O)c3ccccc3C2=O)c1
inactive: dose: 100.0 mg/kg/injection, schedule: Q04DX002 (ip), vehicle: saline 105 % of control | dose: 200.0 mg/kg/injection, schedule: Q04DX002 (ip), vehicle: saline 100 % of control | dose: 400.0 mg/kg/injection, schedule: Q04DX002 (ip), vehicle: saline 102 % of control

CCOC(=O)C1(c2ccccc2)CCN(c2c3ccccc3nc3ccccc23)CC1
inactive: dose: 25.0 mg/kg/injection, schedule: Q04DX003 (ip), vehicle: Klucel (hydroxypropylcellulose) (HPC) 112 % of control | dose: 50.0 mg/kg/injection, schedule: Q04DX003 (ip), vehicle: Klucel (hydroxypropylcellulose) (HPC) 111 % of control | dose: 100.0 mg/kg/injection, schedule: Q04DX003 (ip), vehicle: Klucel (hydroxypropylcellulose) (HPC) 111 % of control and 115 % of control

COc1ccc(C(=O)N2C=CC(=Cc3ccccc3)C=C2)cc1
inactive: dose: 6.25 mg/kg/injection, schedule: Q01DX009 (ip), vehicle: Klucel (hydroxypropylcellulose) (HPC) 103 % of control | dose: 12.5 mg/kg/injection, schedule: Q01DX009 (ip), vehicle: Klucel (hydroxypropylcellulose) (HPC) 102 % of control | dose: 25.0 mg/kg/injection, schedule: Q01DX009 (ip), vehicle: Klucel (hydroxypropylcellulose) (HPC) 97 % of control

O=c1[nH]c(=O)c2nc3c([N+](=O)[O-])ccc(-c4cccc5ccccc45)c3nc2[nH]1
inactive: [5] 109 % of control | [6] 100 % of control

c1coc(-c2cc(-c3cc(-c4ccco4)on3)no2)c1
inactive: [8] 105 % of control | [9] 100 % of control | [10] 107 % of control

Cc1ccccc1C1C2CCCC(C2=O)C(c2ccccc2C)N1C (stereo not given)
inactive: dose: 100.0 mg/kg/injection, schedule: Q04DX003 (ip), vehicle: saline 100 % of control | dose: 200.0 mg/kg/injection, schedule: Q04DX003 (ip), vehicle: saline 103 % of control | dose: 400.0 mg/kg/injection, schedule: Q04DX003 (ip), vehicle: saline 89 % of control

— PubChem BioAssay AID330 (DTP/NCI, 2004)
